Results published in article PMC9668969 (Nature Communications, 2022).
Several values for one entry are separate records, joined by “and”; a condition that tells them apart may be missing. Equal entries are not always repeated.

System: WT ELIC
Assay: Fluorescence stopped-flow liposomal Tl+ flux assay, symmetric liposomes
Format: biochemical, Erwinia chrysanthemi
Parameters: Tl+ flux quenching rate, Avg. / Tl+ flux quenching rate: unit not given here
Conditions: for Avg (stopped-flow fluorescence quenching rate) / Rate (stopped-flow fluorescence quenching rate): WT in PC liposomes; for Avg (stopped-flow fluorescence quenching rate): average of experiments; for Rate (stopped-flow fluorescence quenching rate) / Tl+ flux quenching rate: single experiments
Method: The fluorescence sequential-mixing stopped-flow liposomal flux measurements were carried using an SX20 stopped-flow spectrofluorometer (Applied Photophysics) and Pro-Data SX software[13],[30]. 7.5 mg of the respective lipid mixture (POPC, 1:1 POPC: POPE, 1:1 POPC:POPG, 3:1 POPC:POPE, 3:1 POPC:POPG, 2:1:1 POPC:POPE:POPG) was dried in a glass vial to a thin film under a constant stream of N2. The lipids were then further dried under vacuum in a desiccator overnight. The following day the lipids were hydrated in 500 µl of reconstitution buffer (100 mM NaNO3, 10 mM HEPES, pH 7) (Buffer R), 250 µl of 75 mM 8-Aminonaphthalene-1,3,6-Trisulfonic Acid (ANTS, ThermoFisher Scientific) in buffer R, and doped with ~18 mg of CHAPS (Anatrace). The mixture was vortexed and then sonicated with heat until completely solubilized. Following the sonication, the solution was brought to RT then 3.5 µl of 6.7 mg/ml ELIC in Buffer A with 0.02% DDM was added (3 µg per mg of lipid). This combined solution was incubated at RT for 30 min, followed by the addition of 1 ml of 1:1 v/v SM-2 BioBeads in Buffer R and an additional 250 µl of 75 mM ANTS in Buffer R. This mixture was incubated at RT for 2.5 hr with gentle mixing. The liposome suspension was then extruded with an Avanti mini-extruder and 0.1 µm membrane (30×). The extruded liposomes were stored at 13 °C overnight with gentle rotation. The next day, the liposomes were diluted to 2.5 mL using assay buffer (140 mM NaNO3, 10 mM HEPES, pH 7) (Stopped-flow Buffer A), loaded into a PD-10 desalting column (Cytiva), eluted with 3 mL of Stopped-flow Buffer A and subsequently diluted 5-fold with Stopped-flow Buffer A.
Using propylamine as the agonist, the assay and analysis was carried out as previously described[13],[30]. ELIC-containing liposomes were first mixed 1:1 with Buffer A containing 2× the concentration of propylamine. After a variable delay of 10 ms to 25 s, the sample was then mixed 1:1 with a quenching buffer (90 mM NaNO3, 50 mM TlNO3, 10 mM HEPES, pH 7), and ANTS fluorescence (ex. 360 nm, fluorescence above 420 nm) was recorded for 1 s. For each delay time, 5 repeat measurements were obtained. The data were collected using Applied Photophysics Pro-Data SX software. The fluorescence quenching traces were fit to a stretched exponential (Eq. 2a) and the rate of Tl^+ influx was determined at 2 ms (Eq. 2b).2a Ft=F∞+F0−F∞⋅e^−t/τ^β 2b kt=β/τ⋅2ms/τ^(β−1) where Ft, F∞, F0 are the fluorescence at time t, final fluorescence and initial fluorescence. τ is the time constant, β the stretched exponential factor, and kt the calculated rate of Tl^+ influx at 2 ms. The time course of desensitization was also fit to a double exponential and a weighted time constant was calculated as was done for the patch-clamp data using Origin 2019b. All replicates were taken from independent samples.

Compound: CCCN [propylamine]
- Avg (stopped-flow fluorescence quenching rate) (1 mM PA, delay time 0.1): 0.1082
- Avg (stopped-flow fluorescence quenching rate) (1 mM PA, delay time 0.25): 0.06695
- Avg (stopped-flow fluorescence quenching rate) (1 mM PA, delay time 0.5): 0.1937
- Avg (stopped-flow fluorescence quenching rate) (1 mM PA, delay time 1): 0.6717
- Avg (stopped-flow fluorescence quenching rate) (1 mM PA, delay time 2.5): 0.1973
- Avg (stopped-flow fluorescence quenching rate) (1 mM PA, delay time 5): 0.1019
- Avg (stopped-flow fluorescence quenching rate) (1 mM PA, delay time 10): 0.1686
- Avg (stopped-flow fluorescence quenching rate) (3 mM PA, delay time 0): 0
- Rate (stopped-flow fluorescence quenching rate) (3 mM PA, delay time 0): 0
- Avg (stopped-flow fluorescence quenching rate) (3 mM PA, delay time 0.025): 24.9362
- Avg (stopped-flow fluorescence quenching rate) (3 mM PA, delay time 0.05): 279.785
- Avg (stopped-flow fluorescence quenching rate) (3 mM PA, delay time 0.1): 279.666
- Avg (stopped-flow fluorescence quenching rate) (3 mM PA, delay time 0.25): 300.719
- Avg (stopped-flow fluorescence quenching rate) (3 mM PA, delay time 0.5): 352.59
- Avg (stopped-flow fluorescence quenching rate) (3 mM PA, delay time 1): 284.973
- Avg (stopped-flow fluorescence quenching rate) (3 mM PA, delay time 2.5): 176.344
- Avg (stopped-flow fluorescence quenching rate) (3 mM PA, delay time 5): 145.791
- Avg (stopped-flow fluorescence quenching rate) (3 mM PA, delay time 10): 107.502
- Avg (stopped-flow fluorescence quenching rate) (10 mM PA, delay time 0): 0
- Rate (stopped-flow fluorescence quenching rate) (10 mM PA, delay time 0): 0
- Avg (stopped-flow fluorescence quenching rate) (10 mM PA, delay time 0.01): 3.242
- Avg (stopped-flow fluorescence quenching rate) (10 mM PA, delay time 0.025): 7.793
- Avg (stopped-flow fluorescence quenching rate) (10 mM PA, delay time 0.05): 10.0904
- Avg (stopped-flow fluorescence quenching rate) (10 mM PA, delay time 0.05 as printed in r31 (between 0.25 and 1)): 13.718
- Avg (stopped-flow fluorescence quenching rate) (10 mM PA, delay time 0.1): 10.8806
- Avg (stopped-flow fluorescence quenching rate) (10 mM PA, delay time 0.25): 11.6946
- Avg (stopped-flow fluorescence quenching rate) (10 mM PA, delay time 1): 9.9293
- Avg (stopped-flow fluorescence quenching rate) (10 mM PA, delay time 2.5): 4.516
- Avg (stopped-flow fluorescence quenching rate) (10 mM PA, delay time 5): 0.8684
- Rate (stopped-flow fluorescence quenching rate) (10 mM PA, delay time 10, listed as PA): 0.134 and 0.08335 and 0.06725
- Avg (stopped-flow fluorescence quenching rate) (30 mM PA, delay time 0): 0
- Rate (stopped-flow fluorescence quenching rate) (30 mM PA, delay time 0): 0
- Avg (stopped-flow fluorescence quenching rate) (30 mM PA, delay time 0.01): 8.996
- Avg (stopped-flow fluorescence quenching rate) (30 mM PA, delay time 0.025): 9.575
- Avg (stopped-flow fluorescence quenching rate) (30 mM PA, delay time 0.05): 10.6204
- Avg (stopped-flow fluorescence quenching rate) (30 mM PA, delay time 0.1): 12.7838
- Avg (stopped-flow fluorescence quenching rate) (30 mM PA, delay time 0.25): 12.1642
- Avg (stopped-flow fluorescence quenching rate) (30 mM PA, delay time 0.5): 10.2984
- Avg (stopped-flow fluorescence quenching rate) (30 mM PA, delay time 1): 6.967
- Avg (stopped-flow fluorescence quenching rate) (30 mM PA, delay time 2.5): 2.226
- Avg (stopped-flow fluorescence quenching rate) (30 mM PA, delay time 5): 0.2318
- Rate (stopped-flow fluorescence quenching rate) (30 mM PA, delay time 25, listed as PA): 0.1998 and 0.3265
- Tl+ flux quenching rate (WT 1:1 PC:PE 10 mM PA, delay 0.1 s, listed as PA): 18.5265 and 20.1957 and 27.1402
- Tl+ flux quenching rate (WT 1:1 PC:PE 10 mM PA, delay 0.25 s, listed as PA): 14.1307 and 20.5822 and 22.3191
- Tl+ flux quenching rate (WT 1:1 PC:PE 10 mM PA, delay 5 s, listed as PA): 8.309 and 12.2434 and 8.587
- Tl+ flux quenching rate (WT 3:1 PC:PE 10 mM PA, delay 0.05 s, listed as PA): 17.3372 and 23.7705 and 12.3709
- Tl+ flux quenching rate (WT 3:1 PC:PE 10 mM PA, delay 0.1 s, listed as PA): 25.2651 and 29.8644 and 21.5739
- Tl+ flux quenching rate (WT 3:1 PC:PE 10 mM PA, delay 0.5 s, listed as PA): 30.0354 and 34.8933 and 24.5328
- Tl+ flux quenching rate (WT 3:1 PC:PG 10 mM PA, delay 1 s, listed as PA): 9.374 and 10.6202 and 12.8093
- Tl+ flux quenching rate (WT 3:1 PC:PG 10 mM PA, delay 2.5 s, listed as PA): 7.906 and 8.478 and 12.3833
- Tl+ flux quenching rate (WT 3:1 PC:PG 10 mM PA, delay 5 s, listed as PA): 5.2352 and 10.1414 and 9.072
- Tl+ flux quenching rate (WT PC 10 mM PA, delay 10 s, listed as PA): 0.134 and 0.08335 and 0.06725
